“And” between values parts separate entries of the source, which are not always exact repeats. Identical values can stand only once. Like-named read-outs stand apart in the source and are kept apart here. Marks after values point to notes of the source that are not given here.
Assays:
hCB1 [1] = biological target: T1, hCB1 (Homo sapiens, UniProt P21554); assay: Lance Ultra cAMP accumulation assay, CHO cells; type: cell-based; parameters: expressed in transfected cells; settings: replicates, sheet FigureS2a;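 also: human CB1R stably expressed in CHO cells, ligands co-incubated with forskolin at room temperature, read-out is lowering of forskolin-stimulated cAMP accumulation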
T1 sequence (P21554 whole entry): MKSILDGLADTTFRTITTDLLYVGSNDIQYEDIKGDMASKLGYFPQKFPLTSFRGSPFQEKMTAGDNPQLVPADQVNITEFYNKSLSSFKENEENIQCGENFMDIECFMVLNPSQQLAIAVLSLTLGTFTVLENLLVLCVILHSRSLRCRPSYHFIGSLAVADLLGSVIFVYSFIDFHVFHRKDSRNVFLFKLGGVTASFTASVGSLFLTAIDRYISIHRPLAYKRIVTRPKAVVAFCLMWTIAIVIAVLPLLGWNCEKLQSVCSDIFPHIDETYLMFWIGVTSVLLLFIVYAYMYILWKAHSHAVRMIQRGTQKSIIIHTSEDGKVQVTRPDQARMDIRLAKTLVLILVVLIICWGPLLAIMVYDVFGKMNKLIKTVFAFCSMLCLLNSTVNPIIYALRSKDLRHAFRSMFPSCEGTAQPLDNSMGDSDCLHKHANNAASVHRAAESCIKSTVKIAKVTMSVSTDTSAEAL
Experimental: The inhibition of forskolin-stimulated cAMP accumulation assays was carried out using PerkinElmer’s Lance Ultra cAMP kit following the manufacturer’s protocol. In brief, CHO cells stably expressing human CB1R (provided by the lab of Laura Bohn) were harvested by incubation with Versene (ThermoFisher Scientific, Waltham, MA) for 10 min, washed once with Hank’s Balanced Salt Solution, and resuspended in stimulation buffer at ~200 cells/μL density. The ligands at eight different concentrations (0.001-10,000 nM) in stimulation buffer (5 μL) containing forskolin (2 μM final concentration) were added to a 384-well plate followed by the cell suspension (5 μL; ~1000 cells/well). The plate was incubated for 30 min at room temperature. Eu-cAMP tracer (5 μL) and Ulight-anti-cAMP (5 μL) working solutions were then added to each well, and the plate was incubated at room temperature for an additional 60 min. Results were measured on a Perkin-Elmer EnVision plate reader. The EC50 values were determined by nonlinear regression analysis using Graphpad Prism 9 and are expressed as the mean of three experiments, each performed in triplicate.

CB1 (rCB1) [2] = biological target: T2, CB1 (rCB1) (Rattus norvegicus, UniProt P20272); assay: Single-point radioligand displacement screen; type: binding
T2 sequence (P20272 whole entry): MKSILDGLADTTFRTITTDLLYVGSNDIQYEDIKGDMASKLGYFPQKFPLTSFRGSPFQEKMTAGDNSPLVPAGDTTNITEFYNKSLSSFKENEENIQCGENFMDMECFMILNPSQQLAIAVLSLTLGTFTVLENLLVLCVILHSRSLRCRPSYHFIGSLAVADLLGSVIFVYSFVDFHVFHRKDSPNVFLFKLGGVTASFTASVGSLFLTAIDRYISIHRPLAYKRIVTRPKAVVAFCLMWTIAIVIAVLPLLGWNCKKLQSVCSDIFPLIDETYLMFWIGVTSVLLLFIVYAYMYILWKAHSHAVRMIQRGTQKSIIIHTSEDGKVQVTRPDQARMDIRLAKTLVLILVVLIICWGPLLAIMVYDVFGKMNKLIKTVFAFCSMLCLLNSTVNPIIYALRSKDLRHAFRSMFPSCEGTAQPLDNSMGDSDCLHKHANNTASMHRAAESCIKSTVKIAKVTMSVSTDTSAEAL

hCB1 [3] = biological target: T1, hCB1; assay: bioSensAll ebBRET signaling profiling, hCB1; type: cell-based; parameters: host or cells: HEK293SL cells, transient PEI transfection; settings: for Barr2+GRK2 hCB1 response: Barr2+GRK2 biosensor; for Gi1 hCB1 / GoB hCB1: single replicate values, FigS6a; for EC50: read-out: EC50 [95% CI]; for Emax: normalized to CP-55,940
CB1 (rCB1) [4] = biological target: T2, CB1 (rCB1); assay: Radioligand competition binding, [3H]-CP-55,940, rat brain membranes
[5] = Dynamic light scattering, colloidal aggregation; type: physicochemical; settings: Log[compound, replicates, sheet FigS2b
Experimental: Samples were prepared as 8-point half-log dilutions in filtered 50 mM KPi buffer, pH 7.0 with final DMSO concentration at 1% (v/v). Colloidal particle formation was measured using DynaPro Plate Reader II (Wyatt Technologies). All compounds were screened in triplicate.

Cc1c(C(=O)OCC2CSc3ccccc3O2)cnn1Cc1ccccc1 (centres unmarked) [‘7800]
cAMP assay signal, concentration-response point (hCB1 [1]; compound 0.01 nM): 0.002674 and 0.00241 and 0.002252 | cAMP assay signal, concentration-response point (hCB1 [1]; compound 0.1 nM): 0.00346* and 0.001953 and 0.002364 | cAMP assay signal, concentration-response point (hCB1 [1]; compound 1 nM): 0.002571 and 0.002123 and 0.001894 | cAMP assay signal, concentration-response point (hCB1 [1]; compound 10 nM): 0.002732 and 0.002198 and 0.002584 | cAMP assay signal, concentration-response point (hCB1 [1]; compound 100 nM): 0.002212 and 0.002457 and 0.002193 | cAMP assay signal, concentration-response point (hCB1 [1]; compound 1000 nM): 0.002381 (2×) and 0.002128 | cAMP assay signal, concentration-response point (hCB1 [1]; compound 10000 nM): 0.002 and 0.002342 and 0.001808 | cAMP assay signal, concentration-response point (hCB1 [1]; compound 100000 nM): 0.001289 and 0.001131 and 0.00137 | % 1H-CP-55,940 displacement (mean) from single point screen (CB1 (rCB1) [2]; 10 µM, 1 µM or 300 nM by cell colour (not visible)): 80.92% | rep1_displacement (CB1 (rCB1) [2]; Figure 1c source data, replicate 1): 81.9 | rep2_displacement (CB1 (rCB1) [2]; Figure 1c source data, replicate 2): 79.7 | rep3_displacement (CB1 (rCB1) [2]; Figure 1c source data, replicate 3): 81.1 | Barr2+GRK2 hCB1 response (hCB1 [3]; Log [Compound] (M) -4.22186): 3.174 | Barr2+GRK2 hCB1 response (hCB1 [3]; Log [Compound] (M) -4.63927): -20.118 | Barr2+GRK2 hCB1 response (hCB1 [3]; Log [Compound] (M) -5.05788): -51.0681 | Barr2+GRK2 hCB1 response (hCB1 [3]; Log [Compound] (M) -5.47381): -52.3444 | Barr2+GRK2 hCB1 response (hCB1 [3]; Log [Compound] (M) -5.89285): -39.9006 | Barr2+GRK2 hCB1 response (hCB1 [3]; Log [Compound] (M) -6.31878): -51.3872 | Barr2+GRK2 hCB1 response (hCB1 [3]; Log [Compound] (M) -6.72585): -54.5779 | Barr2+GRK2 hCB1 response (hCB1 [3]; Log [Compound] (M) -7.14267): -56.4924 | Barr2+GRK2 hCB1 response (hCB1 [3]; Log [Compound] (M) -7.55284): -57.7686 | Barr2+GRK2 hCB1 response (hCB1 [3]; Log [Compound] (M) -8): -46.9202 | Barr2+GRK2 hCB1 response (hCB1 [3]; Log [Compound] (M) -8.22186): -10.8649 | Barr2+GRK2 hCB1 response (hCB1 [3]; Log [Compound] (M) -8.39794): -42.7722 | Barr2+GRK2 hCB1 response (hCB1 [3]; Log [Compound] (M) -8.68787): -27.1376 | Barr2+GRK2 hCB1 response (hCB1 [3]; Log [Compound] (M) -9.15521): -45.9629 | Barr2+GRK2 hCB1 response (hCB1 [3]; Log [Compound] (M) -9.61989): -54.897 | Barr2+GRK2 hCB1 response (hCB1 [3]; Log [Compound] (M) -10.0969): -61.2784 | Barr2+GRK2 hCB1 response (hCB1 [3]; Log [Compound] (M) -10.5529): -43.4104 | Barr2+GRK2 hCB1 response (hCB1 [3]; Log [Compound] (M) -11.0177): -60.6403 | Barr2+GRK2 hCB1 response (hCB1 [3]; Log [Compound] (M) -11.4949): -45.3248 | Barr2+GRK2 hCB1 response (hCB1 [3]; Log [Compound] (M) -11.9208): -40.5387 | Barr2+GRK2 hCB1 response (hCB1 [3]; Log [Compound] (M) -12.3979): -30.0093 | Barr2+GRK2 hCB1 response (hCB1 [3]; Log [Compound] (M) -12.8861): -43.4104 | Barr2+GRK2 hCB1 response (hCB1 [3]; Log [Compound] (M) -13.3979): -3.845 | Gi1 hCB1 (hCB1 [3]; Log [Compound] (M) -4.22186): 25.6433 | GoB hCB1 (hCB1 [3]; Log [Compound] (M) -4.22186): 18.8832 | Gi1 hCB1 (hCB1 [3]; Log [Compound] (M) -4.63927): 18.3425 | GoB hCB1 (hCB1 [3]; Log [Compound] (M) -4.63927): 15.081 | Gi1 hCB1 (hCB1 [3]; Log [Compound] (M) -5.05788): 16.1253 | GoB hCB1 (hCB1 [3]; Log [Compound] (M) -5.05788): 13.1365 | Gi1 hCB1 (hCB1 [3]; Log [Compound] (M) -5.47381): 12.8471 | GoB hCB1 (hCB1 [3]; Log [Compound] (M) -5.47381): 14.5949 | Gi1 hCB1 (hCB1 [3]; Log [Compound] (M) -5.89285): 10.5191 | GoB hCB1 (hCB1 [3]; Log [Compound] (M) -5.89285): 11.0184 | Gi1 hCB1 (hCB1 [3]; Log [Compound] (M) -6.31878): 9.3 | GoB hCB1 (hCB1 [3]; Log [Compound] (M) -6.31878): 4.265 | Gi1 hCB1 (hCB1 [3]; Log [Compound] (M) -6.72585): 1.761 | GoB hCB1 (hCB1 [3]; Log [Compound] (M) -6.72585): -3.895 | Gi1 hCB1 (hCB1 [3]; Log [Compound] (M) -7.14267): -0.6935 | GoB hCB1 (hCB1 [3]; Log [Compound] (M) -7.14267): -5.024 | Gi1 hCB1 (hCB1 [3]; Log [Compound] (M) -7.55284): -2.087 | GoB hCB1 (hCB1 [3]; Log [Compound] (M) -7.55284): -3.843 | Gi1 hCB1 (hCB1 [3]; Log [Compound] (M) -8): -2.0396 | GoB hCB1 (hCB1 [3]; Log [Compound] (M) -8): -4.659 | Gi1 hCB1 (hCB1 [3]; Log [Compound] (M) -8.22186): 3.424 | GoB hCB1 (hCB1 [3]; Log [Compound] (M) -8.22186): -0.09294 | Gi1 hCB1 (hCB1 [3]; Log [Compound] (M) -8.39794): -0.9469 | GoB hCB1 (hCB1 [3]; Log [Compound] (M) -8.39794): -3.478 | Gi1 hCB1 (hCB1 [3]; Log [Compound] (M) -8.68787): -0.4717 | GoB hCB1 (hCB1 [3]; Log [Compound] (M) -8.68787): -5.371 | Gi1 hCB1 (hCB1 [3]; Log [Compound] (M) -9.15521): -0.4876 | GoB hCB1 (hCB1 [3]; Log [Compound] (M) -9.15521): -5.492 | Gi1 hCB1 (hCB1 [3]; Log [Compound] (M) -9.61989): 0.05088 | GoB hCB1 (hCB1 [3]; Log [Compound] (M) -9.61989): -8.027 | Gi1 hCB1 (hCB1 [3]; Log [Compound] (M) -10.0969): -0.4084 | GoB hCB1 (hCB1 [3]; Log [Compound] (M) -10.0969): -5.128 | Gi1 hCB1 (hCB1 [3]; Log [Compound] (M) -10.5529): -1.2 | GoB hCB1 (hCB1 [3]; Log [Compound] (M) -10.5529): -2.958 | Gi1 hCB1 (hCB1 [3]; Log [Compound] (M) -11.0177): -3.528 | GoB hCB1 (hCB1 [3]; Log [Compound] (M) -11.0177): -7.871 | Gi1 hCB1 (hCB1 [3]; Log [Compound] (M) -11.4949): -2.61 | GoB hCB1 (hCB1 [3]; Log [Compound] (M) -11.4949): -5.562 | Gi1 hCB1 (hCB1 [3]; Log [Compound] (M) -11.9208): -3.829 | GoB hCB1 (hCB1 [3]; Log [Compound] (M) -11.9208): -5.683 | Gi1 hCB1 (hCB1 [3]; Log [Compound] (M) -12.3979): -3.75 | GoB hCB1 (hCB1 [3]; Log [Compound] (M) -12.3979): -6.656 | Gi1 hCB1 (hCB1 [3]; Log [Compound] (M) -12.8861): -1.469 | GoB hCB1 (hCB1 [3]; Log [Compound] (M) -12.8861): -6.1521 | Gi1 hCB1 (hCB1 [3]; Log [Compound] (M) -13): 0.2409 | GoB hCB1 (hCB1 [3]; Log [Compound] (M) -13): -5.215 | Gi1 hCB1 (hCB1 [3]; Log [Compound] (M) cell empty): -0.4876 | GoB hCB1 (hCB1 [3]; Log [Compound] (M) cell empty): -5.406 | pEC50 [95% CI] (hCB1 [3]; hCB1 Gi1): 5.2 [6.0] | pEC50 [95% CI] (hCB1 [3]; hCB1 GoB): 6.2 [5.9 – 6.4] | EC50 (hCB1 [3]; hCB1 Gi1): 6.79 µM | EC50 (hCB1 [3]; hCB1 GoB): 0.597 µM | Emax (hCB1 [3]; read-out: Emax [95% CI], hCB1 Gi1): 34% | Emax (hCB1 [3]; read-out: Emax [95% CI], hCB1 GoB): 21% | radioligand binding remaining, competition curve (Figure2e), replicate values (CB1 (rCB1) [4]; log[drug] -3.643): 10.4237 and 31.3638 and 29.0535 | radioligand binding remaining, competition curve (Figure2e), replicate values (CB1 (rCB1) [4]; log[drug] -4.35655): 33.4463 and 9.669 and 4.937 | radioligand binding remaining, competition curve (Figure2e), replicate values (CB1 (rCB1) [4]; log[drug] -5.07): 28.6441 and 35.1835 and 32.9974 | radioligand binding remaining, competition curve (Figure2e), replicate values (CB1 (rCB1) [4]; log[drug] -5.783): 65.4237 and 64.1301 and 55.9597 | radioligand binding remaining, competition curve (Figure2e), replicate values (CB1 (rCB1) [4]; log[drug] -6.496): 99.1808 and 92.7484 and 90.0088 | radioligand binding remaining, competition curve (Figure2e), replicate values (CB1 (rCB1) [4]; log[drug] -7.21): 109.096 and 99.3733 and 111.043 | radioligand binding remaining, competition curve (Figure2e), replicate values (CB1 (rCB1) [4]; log[drug] -7.923): 105.847 and 88.1826 and 105.215 | radioligand binding remaining, competition curve (Figure2e), replicate values (CB1 (rCB1) [4]; log[drug] -8.636): 93.4322 and 101.298 and 96.7572 | pKi [95% CI] (CB1 (rCB1) [4]; rCB1): 6.0 [5.78 – 6.21] | DLS scattering intensity ([5]; uM] 0): 1640000 and 1120000 and 1230000 | DLS scattering intensity ([5]; uM] 1): 22000000 and 23800000 and 19200000 | DLS scattering intensity ([5]; uM] 1.49996): 97300000 and 53900000 and 120000000 | DLS scattering intensity ([5]; uM] 2): 210000000 and 155600000 and 163000000 | DLS scattering intensity ([5]; uM] -0.500011): 631259 and 1270000 and 2510000 | DLS scattering intensity ([5]; uM] -1): 884292 and 807566 and 1180000

From paper PMC11882969 (Nature Communications, 2025)
